Results: paper PMC3070160 (Biochemistry, 2010)
Values belong to the molecule of their own block, whether it stands above or below them.

Experiments:
Format in all cases: binding
[1] = molecular target: T1, yCBS (yeast cystathionine β-synthase) (Saccharomyces cerevisiae, UniProt P32582); assay: double-mixing stopped-flow, […] nm decay, koff/kon
T1 sequence (P32582 1-507): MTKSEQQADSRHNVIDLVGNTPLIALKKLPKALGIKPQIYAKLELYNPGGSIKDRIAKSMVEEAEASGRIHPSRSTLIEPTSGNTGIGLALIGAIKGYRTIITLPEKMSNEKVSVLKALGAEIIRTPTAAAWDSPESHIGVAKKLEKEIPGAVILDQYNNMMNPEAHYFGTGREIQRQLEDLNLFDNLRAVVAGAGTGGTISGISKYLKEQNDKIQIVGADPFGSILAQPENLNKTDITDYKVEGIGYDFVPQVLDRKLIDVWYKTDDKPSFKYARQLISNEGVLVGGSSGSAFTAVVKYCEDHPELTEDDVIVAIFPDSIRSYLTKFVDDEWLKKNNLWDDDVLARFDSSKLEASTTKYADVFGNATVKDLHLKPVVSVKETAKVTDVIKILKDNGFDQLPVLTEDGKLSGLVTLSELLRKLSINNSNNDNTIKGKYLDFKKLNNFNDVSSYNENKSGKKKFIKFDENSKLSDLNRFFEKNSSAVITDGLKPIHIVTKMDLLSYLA

[2] = molecular target: T1, yCBS (yeast cystathionine β-synthase); assay: stopped-flow, aminoacrylate formation at […] nm, hyperbolic fit of kobs
[3] = molecular target: T1, yCBS (yeast cystathionine β-synthase); assay: UV-visible spectrum of enzyme as isolated; settings: internal aldimine with Lys53; covalent

- Kd [1]: 0.37 ± 0.02 mM
Structure (SMILES): N[C@@H](CCS)C(=O)O [L-homocysteine]

- Kd [2]: 14.4 ± 1.7 mM
Structure (SMILES): N[C@@H](CO)C(=O)O [L-serine]

Structure (SMILES): Cc1ncc(COP(=O)(O)O)c(C=O)c1O [PLP]
- UV-visible spectrum of enzyme as isolated [3]: protonated Schiff base (internal aldimine) between Lys53 in the active site and the PLP
